Test system: alopecia mouse model
Assay: Hair growth promotion test in mice with alopecia (testosterone propionate model)
Type: in vivo, C57BL/6 mice
Method: The compounds of the present disclosure were tested for their hair growth-promoting effects on an alopecia mouse model.
C57BL/6 mice (purchased from SPF (Beijing) Biotechnology Co., Ltd., production license No.: SCXK (Beijing) 2019-0010), test compounds (prepared by the method of the present disclosure), rosin (Shanghai YuanYe Bio-Technology Co., Ltd., lot No. Y18M10C83144), liquid paraffin (Shanghai YuanYe Bio-Technology Co., Ltd., lot No.: Z22S11Y125555), chloral hydrate (Sinopharm Chemical Reagent Co., Ltd., lot No.: 20190823, a 2% chloral hydrate solution was prepared by using a 0.9% sodium chloride solution before use), testosterone propionate (Aladdin Reagent (Shanghai) Co., Ltd., lot No.: T101368, a 0.5% testosterone propionate solution was prepared by using an a soybean oil for injection before use), soybean oil for injection (Liaoning Shinsun Pharmaceutical Co., Ltd., lot No.: NMPA Approval No. H21024303), paraformaldehyde (Xilong Scientific Co., Ltd., lot No.: 1705022), a 0.9% sodium chloride solution (Jiangsu Huai'an Shuanghe Pharmaceutical Co., Ltd., lot No.: 210322-3C), an electronic balance (Beijing Sartorius Scientific Instruments Co., Ltd., model: BS224 S; GZX-9140MBE), and a digital display electric heating constant temperature air blast drying oven (Shanghai Boxun Medical Biological Instrument Corp.).
8-week-old male C57BL/6 mice were selected and injected with 2% chloral hydrate (400 mg/kg) for anesthesia. Equal amounts of rosin and paraffin were weighed out, heated, and mixed well. The mixture was applied on the front back of the mice in an area of about 2 cm×2.5 cm. After the mixture was cooled to be hard, the solidified hair was torn off by tweezers gently.
Qualified C57BL/6 mice (3 mice per group) were randomly assigned to a blank group, a model group, a positive control drug group (7.5% clascoterone group), and test groups (including 0.3% compound 8 group and 0.3% compound 7 group). Mice in the blank group were coated with 0.1 mL of normal saline in the depilated area every morning (1 time a day for 17 consecutive days); mice in the model group were coated with 0.1 mL of 0.5% testosterone propionate solution in the depilated area every morning (1 time a day, starting on the first day, for 17 consecutive days), and with 0.5 mL of the control solvent in the depilated area every afternoon (1 time a day, starting on the second day, for 16 consecutive days); mice in the positive control drug group were coated with 0.1 mL of 0.5% testosterone propionate solution in the depilated area every morning (1 time a day, starting on the first day, for 17 consecutive days), and with 0.5 mL of 7.5% clascoterone solution in the depilated area every afternoon (1 time a day, starting on the second day, for 16 consecutive days); and mice in the test groups were coated with 0.1 mL of 0.5% testosterone propionate solution in the depilated area every morning (1 time a day, starting on the first day, for 17 consecutive days), and with 0.5 mL of 0.3% test compound solution in the depilated area every afternoon (1 time a day, starting on the second day, for 16 consecutive days). The formula of the test compound solution was 0.3% test compound, 40% DMSO, 30% ethanol, and the balance of water; the formula of the control solvent was 40% DMSO, 30% ethanol, and the balance of water; the formula of the positive control drug group was 7.5% clascoterone, 40% DMSO, 30% ethanol, and the balance of water. The hair regrowth in the depilated area of the mice in each group was observed and photographed 16 days after the start of topical administration of the test compound solution.
On day 18 of the test, 5 new hairs were pulled out from the back depilated area of each mouse in each group, the lengths of the hairs were measured using a vernier caliper, and the lengths of the hairs of the mice in each group were counted. The skin of the depilated area of the mice in each group was cut out, and hematoxylin-eosin staining (HE staining) was performed. […]

## CCC(=O)O[C@]1(C(=O)CO)CC[C@H]2[C@@H]3CCC4=CC(=O)CC[C@]4(C)[C@H]3CC[C@@]21C [clascoterone, reference compound]
Alopecia mouse model, FIG. 3
  hair growth and number of hair follicles compared to the model group (in words): significantly grown hairs and the number of hair follicles was significantly increased
Day 18, per field (×100), HE staining, topical once daily for 16 days
  Number of hair follicles (X ± SD): 53.533 ± 24.929
Day 18, topical once daily for 16 days, testosterone propionate alopecia mice
  Hair length (X ± SD): 5.649 ± 0.059 mm

Reference: patent publication US20250295609A1, “COMPOUND HAVING ANTI-ANDROGEN RECEPTOR ACTIVITY, AND USE THEREOF” (NANJING MINOVA PHARMACEUTICAL CO., LTD., priority 2022, published 2025)
